# In ChEMBL document CHEMBL5584245, “Structure-activity relationship of dual inhibitors containing maleimide and imidazole motifs against glutaminyl cyclase and glycogen synthase kinase-3β” (Bioorg Med Chem Lett, 2024):
# Legend:
# [1] = target: Glutaminyl-peptide cyclotransferase (Homo sapiens, UniProt Q16769); test: Inhibition of glutaminyl cyclase (unknown origin)
# [2] = target: Glycogen synthase kinase-3 beta (Homo sapiens, UniProt P49841); test: Inhibition of GSK-3beta (unknown origin)
# Glycogen synthase kinase-3 beta, sequence (P49841 whole entry): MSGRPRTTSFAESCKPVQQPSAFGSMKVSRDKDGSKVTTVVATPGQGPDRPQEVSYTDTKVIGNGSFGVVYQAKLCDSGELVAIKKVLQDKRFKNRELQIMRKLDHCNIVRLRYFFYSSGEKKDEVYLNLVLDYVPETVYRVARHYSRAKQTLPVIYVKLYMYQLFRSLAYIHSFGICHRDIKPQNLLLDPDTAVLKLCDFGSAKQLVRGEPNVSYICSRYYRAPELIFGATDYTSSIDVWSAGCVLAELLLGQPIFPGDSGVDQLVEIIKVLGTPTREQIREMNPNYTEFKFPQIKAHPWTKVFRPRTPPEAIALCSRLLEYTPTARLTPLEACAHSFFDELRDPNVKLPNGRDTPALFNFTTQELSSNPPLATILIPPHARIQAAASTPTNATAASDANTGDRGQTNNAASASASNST
# Glutaminyl-peptide cyclotransferase, sequence (Q16769 whole entry): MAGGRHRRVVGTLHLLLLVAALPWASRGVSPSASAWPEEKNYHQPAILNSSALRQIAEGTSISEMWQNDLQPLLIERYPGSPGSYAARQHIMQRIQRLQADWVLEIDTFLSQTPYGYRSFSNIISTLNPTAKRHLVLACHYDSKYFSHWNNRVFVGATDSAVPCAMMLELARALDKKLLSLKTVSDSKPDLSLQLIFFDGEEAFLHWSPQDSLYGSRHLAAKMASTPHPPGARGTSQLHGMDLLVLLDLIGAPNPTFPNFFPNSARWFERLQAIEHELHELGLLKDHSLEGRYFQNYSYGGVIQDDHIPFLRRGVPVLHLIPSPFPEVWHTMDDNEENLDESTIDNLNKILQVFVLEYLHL
SMILES,IC50 [1] [nM],IC50 [2] [nM]
Cc1cncn1CCCn1cc(C2=C(c3ccccc3)C(=O)NC2=O)c2ccccc21,2300,14
Cc1cncn1CCCn1cc(C2=C(c3ccc(OCCCN4CCOCC4)cc3)C(=O)NC2=O)c2ccccc21,1510,178
Cc1cncn1CCCn1cc(C2=C(c3ccccc3F)C(=O)NC2=O)c2ccccc21,2760,29
COc1cc(C2=C(c3cn(CCCn4cncc4C)c4ccccc34)C(=O)NC2=O)ccc1OCCCc1ccccc1,18100,177
Cc1cncn1CCCn1cc(C2=C(c3ccc(OCCCCc4ccccc4)cc3)C(=O)NC2=O)c2ccccc21,6990,192
Cc1cncn1CCCn1cc(C2=C(c3ccc(OCCCN4CCN(c5ccccc5)CC4)cc3)C(=O)NC2=O)c2ccccc21,9550,197
COc1cc(C2=C(c3cn(CCCn4cncc4C)c4ccccc34)C(=O)NC2=O)ccc1OCCCN1CCCCC1,1130,51
COc1cc(C2=C(c3cn(CCCn4cncc4C)c4ccccc34)C(=O)NC2=O)ccc1OCCCN1CCOCC1,7020,89
Cc1cncn1CCCn1cc(C2=C(c3ccc(OCCCn4ccnc4)cc3)C(=O)NC2=O)c2ccccc21,15000,104
Cc1cncn1CCCn1cc(C2=C(c3ccc([N+](=O)[O-])cc3)C(=O)NC2=O)c2ccccc21,1890,161
Cc1cncn1CCCn1cc(C2=C(c3ccc(OCCCN4CCCCC4)cc3)C(=O)NC2=O)c2ccccc21,1120,87
Cc1cncn1CCCn1cc(C2=C(c3cccc([N+](=O)[O-])c3)C(=O)NC2=O)c2ccccc21,6130,47
COc1cc(C2=C(c3cn(CCCn4cncc4C)c4ccccc34)C(=O)NC2=O)ccc1OCCCCN1CCCCC1,830,64
Cc1cncn1CCCn1cc(C2=C(c3ccc(OCCCN4CCCC4)cc3)C(=O)NC2=O)c2ccccc21,3920,162
Cc1cncn1CCCn1cc(C2=C(c3ccc(OCCCCn4ccnc4)cc3)C(=O)NC2=O)c2ccccc21,11200,133
Cc1cncn1CCCn1cc(C2=C(c3ccc(OCCCCN4CCCC4)cc3)C(=O)NC2=O)c2ccccc21,1080,93
Cc1cncn1CCCn1cc(C2=C(c3ccc(OCCCCN4CCN(c5ccccc5)CC4)cc3)C(=O)NC2=O)c2ccccc21,7630,200
CCCCOc1ccc(C2=C(c3cn(CCCn4cncc4C)c4ccccc34)C(=O)NC2=O)cc1,10200,53

SMILES,IC50 [1] [nM],IC50 [2] [nM]
COc1cccc(C2=C(c3cn(CCCn4cncc4C)c4ccccc34)C(=O)NC2=O)c1,6320,55
Cc1cncn1CCCn1cc(C2=C(c3cc(F)c(F)cc3F)C(=O)NC2=O)c2ccccc21,2600,122
Cc1cncn1CCCn1cc(C2=C(c3ccc(OCCCN4CCN(C)CC4)cc3)C(=O)NC2=O)c2ccccc21,1300,74
Cc1cncn1CCCn1cc(C2=C(c3ccc(F)cc3)C(=O)NC2=O)c2ccccc21,3220,102
COc1ccccc1C1=C(c2cn(CCCn3cncc3C)c3ccccc23)C(=O)NC1=O,1710,23
Cc1cncn1CCCn1cc(C2=C(c3ccc(OCCCCN4CCN(C)CC4)cc3)C(=O)NC2=O)c2ccccc21,3240,15
Cc1cncn1CCCn1cc(C2=C(c3ccc(OCCCc4ccccc4)cc3)C(=O)NC2=O)c2ccccc21,7970,182
COc1cc(C2=C(c3cn(CCCn4cncc4C)c4ccccc34)C(=O)NC2=O)ccc1OCCCCN1CCOCC1,13000,59
COc1ccc(C2=C(c3cn(CCCn4cncc4C)c4ccccc34)C(=O)NC2=O)cc1OC,4590,36
CCCOc1ccc(C2=C(c3cn(CCCn4cncc4C)c4ccccc34)C(=O)NC2=O)cc1,20000,150
Cc1ccccc1C1=C(c2cn(CCCn3cncc3C)c3ccccc23)C(=O)NC1=O,1760,59
COc1cc(C2=C(c3cn(CCCn4cncc4C)c4ccccc34)C(=O)NC2=O)ccc1OCCCCc1ccccc1,26200,91
Cc1cncn1CCCn1cc(C2=C(c3ccc(OCCCCN4CCCCC4)cc3)C(=O)NC2=O)c2ccccc21,2200,68
Cc1cncn1CCCn1cc(C2=C(c3ccc(OCCCCN4CCOCC4)cc3)C(=O)NC2=O)c2ccccc21,2210,57
Cc1cncn1CCCn1cc(C2=C(c3ccccc3[N+](=O)[O-])C(=O)NC2=O)c2ccccc21,1220,2
Cc1cccc(C2=C(c3cn(CCCn4cncc4C)c4ccccc34)C(=O)NC2=O)c1,6230,103
Cc1cncn1CCCn1cc(C2=C(c3cccc(F)c3)C(=O)NC2=O)c2ccccc21,10800,64
